The values below are quoted from earlier work in US6544543B1, “Periodic constriction of vessels to treat ischemic tissue” (Advanced Cardiovascular Systems, Inc., priority 2000, dated 2003).

For data set [1] the following is noted: avidin tetramer-biotin noncovalent interaction.
For data set [2] the following is noted: avidin tetramer binds four biotin molecules in solution, noncovalent interaction.

For “avidin: polypeptide of at least 128 amino acid residues, forms a tetramer, binds four biotin molecules; member of the affinity pair”, the half-life in vivo entry in data set [1] is “about 89 days”. In addition, in data set [2], the binding constant result is “about 10^15 M^−1”.
